± gives the expanded uncertainty stated by the source.
Assay: molar heat capacity at constant pressure
Conditions: 101.33 kPa, Liquid, heat bridge-scanning calorimeter

CCCCn1cc[n+](C)c1.F[P-](F)(F)(F)(F)F [1-butyl-3-methylimidazolium hexafluorophosphate]
Conditions	molar heat capacity at constant pressure [J/K/mol]
300.05 K	409.22 ± 8.2
300.17 K	409.79 ± 8.2
300.3 K	410.08 ± 8.2
300.43 K	410.08 ± 8.2
300.55 K	410.36 ± 8.2
300.81 K	410.36 ± 8.2
300.94 K	410.36 ± 8.2
301.07 K	410.64 ± 8.2
301.19 K	410.93 ± 8.2
301.32 K	410.93 ± 8.2
301.45 K	411.21 ± 8.2
301.57 K	410.93 ± 8.2
301.7 K	411.5 ± 8.2
301.83 K	411.5 ± 8.2
301.95 K	411.5 ± 8.2
302.08 K	411.78 ± 8.2
302.35 K	412.06 ± 8.2
302.48 K	412.06 ± 8.2
302.61 K	412.06 ± 8.2
302.73 K	412.35 ± 8.2
302.86 K	412.35 ± 8.2
302.99 K	412.35 ± 8.2
303.12 K	412.35 ± 8.2
303.24 K	412.92 ± 8.2
303.37 K	412.92 ± 8.2
303.63 K	413.2 ± 8.2
303.75 K	413.2 ± 8.2
303.89 K	413.2 ± 8.2
304.02 K	413.2 ± 8.2
304.15 K	413.2 ± 8.2
304.27 K	413.2 ± 8.2
304.4 K	413.49 ± 8.2
304.53 K	413.49 ± 8.2
304.66 K	413.77 ± 8.2
304.78 K	414.05 ± 8.2
304.91 K	414.05 ± 8.2
305.19 K	414.34 ± 8.2
305.31 K	414.34 ± 8.2
305.44 K	414.34 ± 8.2
305.57 K	414.62 ± 8.2
305.7 K	414.91 ± 8.2
305.82 K	414.62 ± 8.2
305.95 K	414.91 ± 8.2
306.08 K	415.19 ± 8.2
306.2 K	415.19 ± 8.2
306.46 K	415.19 ± 8.2
306.59 K	415.19 ± 8.2
306.72 K	415.47 ± 8.2
306.84 K	415.47 ± 8.2
306.97 K	415.47 ± 8.2
307.1 K	415.76 ± 8.2
307.22 K	415.76 ± 8.2
307.35 K	416.33 ± 8.2
307.48 K	415.76 ± 8.2
307.61 K	416.04 ± 8.2
307.73 K	416.04 ± 8.2
308.01 K	416.04 ± 8.2
308.13 K	416.61 ± 8.2
308.26 K	416.33 ± 8.2
308.39 K	416.61 ± 8.2
308.51 K	416.61 ± 8.2
308.64 K	416.9 ± 8.2
308.77 K	416.61 ± 8.2
308.89 K	416.61 ± 8.2
309.02 K	416.9 ± 8.2
309.28 K	416.9 ± 8.2
309.41 K	417.18 ± 8.2
309.53 K	417.46 ± 8.2
309.66 K	417.46 ± 8.2
309.8 K	417.46 ± 8.2
309.93 K	417.46 ± 8.2
310.05 K	417.46 ± 8.2
310.18 K	417.46 ± 8.2
310.31 K	417.75 ± 8.2
310.44 K	417.75 ± 8.2
310.56 K	418.03 ± 8.2
310.84 K	418.32 ± 8.2
310.97 K	418.32 ± 8.2
311.09 K	418.32 ± 8.2
311.22 K	418.32 ± 8.2
311.35 K	418.6 ± 8.2
311.47 K	418.32 ± 8.2
311.6 K	418.6 ± 8.2
311.73 K	418.6 ± 8.2
311.86 K	418.32 ± 8.2
312.11 K	418.6 ± 8.2
312.24 K	418.6 ± 8.2
312.37 K	418.88 ± 8.2
312.49 K	418.88 ± 8.2
312.62 K	419.17 ± 8.5
312.75 K	419.17 ± 8.5
312.87 K	419.45 ± 8.5
313 K	419.45 ± 8.5
313.13 K	419.45 ± 8.5
313.25 K	419.45 ± 8.5
313.38 K	419.74 ± 8.5
313.65 K	420.02 ± 8.5
313.78 K	420.02 ± 8.5
313.91 K	420.02 ± 8.5
314.04 K	420.02 ± 8.5
314.16 K	420.02 ± 8.5
314.29 K	420.02 ± 8.5
314.42 K	420.31 ± 8.5
314.54 K	420.59 ± 8.5
314.67 K	420.59 ± 8.5
314.93 K	420.59 ± 8.5
315.05 K	420.59 ± 8.5
315.18 K	420.87 ± 8.5
315.31 K	420.87 ± 8.5
315.43 K	420.87 ± 8.5
315.56 K	420.87 ± 8.5
315.7 K	420.87 ± 8.5
315.82 K	420.87 ± 8.5
315.95 K	421.16 ± 8.5
316.08 K	420.87 ± 8.5
316.2 K	421.16 ± 8.5
316.48 K	421.16 ± 8.5
316.6 K	421.44 ± 8.5
316.73 K	421.73 ± 8.5
316.86 K	421.73 ± 8.5
316.98 K	421.73 ± 8.5
317.11 K	421.73 ± 8.5
317.24 K	421.73 ± 8.5
317.36 K	421.73 ± 8.5
317.49 K	421.44 ± 8.5
317.75 K	422.01 ± 8.5
317.88 K	422.01 ± 8.5
318 K	422.29 ± 8.5
318.13 K	422.29 ± 8.5
318.26 K	422.58 ± 8.5
318.38 K	422.58 ± 8.5
318.51 K	422.58 ± 8.5
318.64 K	422.58 ± 8.5
318.76 K	422.86 ± 8.5
318.89 K	422.58 ± 8.5
319.02 K	423.15 ± 8.5
319.29 K	422.86 ± 8.5
319.42 K	422.86 ± 8.5
319.54 K	422.86 ± 8.5
319.67 K	422.86 ± 8.5
319.8 K	422.86 ± 8.5
319.92 K	422.86 ± 8.5
320.05 K	423.15 ± 8.5
320.18 K	423.15 ± 8.5
320.3 K	423.15 ± 8.5
320.56 K	423.43 ± 8.5
320.69 K	423.43 ± 8.5
320.81 K	423.72 ± 8.5
320.94 K	423.72 ± 8.5
321.06 K	423.72 ± 8.5
321.19 K	424 ± 8.5
321.32 K	424 ± 8.5
321.44 K	424 ± 8.5
321.57 K	424 ± 8.5
321.71 K	424 ± 8.5
321.83 K	424.28 ± 8.5
322.11 K	424.28 ± 8.5
322.23 K	424.28 ± 8.5
322.36 K	424 ± 8.5
322.49 K	424 ± 8.5
322.61 K	424 ± 8.5
322.74 K	424.28 ± 8.5
322.87 K	424.28 ± 8.5
322.99 K	424.57 ± 8.5
323.12 K	424.57 ± 8.5
323.38 K	424.57 ± 8.5
323.5 K	424.57 ± 8.5
323.63 K	424.85 ± 8.5
323.76 K	424.85 ± 8.5
323.88 K	424.85 ± 8.5
324.01 K	425.14 ± 8.5
324.14 K	425.14 ± 8.5
324.26 K	425.14 ± 8.5
324.39 K	425.42 ± 8.5
324.51 K	425.42 ± 8.5
324.64 K	425.42 ± 8.5
324.91 K	425.71 ± 8.5
325.04 K	425.71 ± 8.5
325.17 K	425.71 ± 8.5
325.29 K	425.71 ± 8.5
325.42 K	425.71 ± 8.5
325.54 K	425.99 ± 8.5
325.67 K	425.71 ± 8.5
325.8 K	425.99 ± 8.5
325.92 K	426.27 ± 8.5
326.18 K	426.27 ± 8.5
326.31 K	426.27 ± 8.5
326.43 K	426.27 ± 8.5
326.56 K	426.56 ± 8.5
326.68 K	426.56 ± 8.5
326.81 K	426.27 ± 8.5

Source: the NIST ThermoML archive (doi:10.1021/je034102r)
